According to article PMC10208956, “Microbial peptides activate tumour-infiltrating lymphocytes in glioblastoma” (Nature, 2023):

Legend:
Type in all cases: cell-based, human
TCC8F7 = assay: Proliferation of TCC8F7, 3H-thymidine (SI), 3 days; conditions: irradiated autologous PBMCs as APCs, Extended Data Fig. 5d
TCC75 = assay: Cytokine/chemokine secretion of TCC75; design: IL-1α / IL-1β / IL-2 / IL-3 / IL-4 / IL-5 / IL-6 / IL-7 / IL-10 / IL-13 / IL-15 / IL-17A / IL-33 / TNF-α: unit not given here; conditions: TCC75, sheet e
[1] = tested on: bacteria/microbiota-reactive CFSEdim CD4+ TILs; assay: Proliferation of expanded CFSEdim CD4+ TILs that responded to the bacteria/microbiota peptide pool; conditions: 5 days; 4 replicate wells; Fig. 4d

**Q.** With Ac-QPVEFNHAIHYVN-NH2 [SIN3A*] as the substance, how does the “response of TCC8F7 (in words)” value (TCC8F7) read?
**A.** strongly responds

**Q.** And the CCL2/MCP-1 (TCC75)?
**A.** 15.01

**Q.** And the CCL3/MIP-1α (TCC75)?
**A.** 1946.52

**Q.** What about the CCL4/MIP-1β (TCC75) of the same substance?
**A.** 6778.88

**Q.** What about the CCL11/Eotaxin (TCC75) of the same substance?
**A.** 4.69

**Q.** And the CCL19/MIP-3β (TCC75)?
**A.** 3.33

**Q.** What about the CCL20/MIP-3α (TCC75) of the same substance?
**A.** 6.39

**Q.** What about the “CD40 Ligand” value (TCC75) of the same substance?
**A.** 608.52

**Q.** What about the CXCL1/GROα (TCC75) of the same substance?
**A.** 9.62

**Q.** What about the CXCL2/GROβ (TCC75) of the same substance?
**A.** 35.12

**Q.** And the CXCL8/IL-8 (TCC75)?
**A.** 0

**Q.** And the CXCL10/IP-10 (TCC75)?
**A.** 40.51

**Q.** What about the “Flt-3 Ligand” value (TCC75) of the same substance?
**A.** 43.9

**Q.** What about the Fractalkine (TCC75) of the same substance?
**A.** 194.12

**Q.** And the GM-CSF (TCC75)?
**A.** 3130.41

**Q.** And the “Granzyme B” value (TCC75)?
**A.** 1085.42

**Q.** What about the IFN-α (TCC75) of the same substance?
**A.** 4.79

**Q.** What about the IFN-γ (TCC75) of the same substance?
**A.** 479.21

**Q.** And the IL-1rα (TCC75)?
**A.** 0

**Q.** What about the IL-1α (TCC75) of the same substance?
**A.** 6.12

**Q.** What about the IL-1β (TCC75) of the same substance?
**A.** 7.45

**Q.** What about the IL-2 (TCC75) of the same substance?
**A.** 555.39

**Q.** And the IL-3 (TCC75)?
**A.** 138.37

**Q.** And the IL-4 (TCC75)?
**A.** 73.09

**Q.** What about the IL-5 (TCC75) of the same substance?
**A.** 13.91

**Q.** What about the IL-6 (TCC75) of the same substance?
**A.** 139.59

**Q.** And the IL-7 (TCC75)?
**A.** 1.11

**Q.** What about the IL-10 (TCC75) of the same substance?
**A.** 887.25

**Q.** And the IL-12p70 (TCC75)?
**A.** 22.92

**Q.** And the IL-13 (TCC75)?
**A.** 233.15

**Q.** And the IL-15 (TCC75)?
**A.** 1.05

**Q.** And the IL-17A (TCC75)?
**A.** 0.99

**Q.** And the IL-17E/IL-25 (TCC75)?
**A.** 3.22

**Q.** And the IL-33 (TCC75)?
**A.** 3.72

**Q.** What about the RANTES (TCC75) of the same substance?
**A.** 1598.25

**Q.** And the TNF-α (TCC75)?
**A.** 5169.38

**Q.** And the “recognition by CD4+ TILs pre-stimulated with the bacteria/microbiota peptide pool, by proliferation and/or GM-CSF secretion (in words)” value [1]?
**A.** recognized
